Reference: ChEMBL document CHEMBL1201862, “PubChem BioAssay data set” (2004)
Values joined by “and” are separate entries in the source; they are usually repeats but may differ in a detail not shown here. Identical values can stand only once. Active and inactive are the calls of the source.

Tests used:
HEK293 [1] = experiment: SAR analysis of compounds that are cytotoxic to HEK293 - Set 3. [Related pubchem assays (depositor defined):AID1575, AID1578, AID1848, AID1849, AID2001, AID2333, AID2334, AID2335, AID2337, AID2469]; format: functional, cell-based; settings: Homo sapiens
[2] = biological target: T1, Nucleotide-binding oligomerization domain-containing protein 2 (Homo sapiens, UniProt Q9HC29); experiment: NOD2 signaling inhibitors, analog potency, SAR follow-up, cell-based, set 3 (AID 2799); format: functional
T1 sequence (Q9HC29 whole entry, the tested form may be a part): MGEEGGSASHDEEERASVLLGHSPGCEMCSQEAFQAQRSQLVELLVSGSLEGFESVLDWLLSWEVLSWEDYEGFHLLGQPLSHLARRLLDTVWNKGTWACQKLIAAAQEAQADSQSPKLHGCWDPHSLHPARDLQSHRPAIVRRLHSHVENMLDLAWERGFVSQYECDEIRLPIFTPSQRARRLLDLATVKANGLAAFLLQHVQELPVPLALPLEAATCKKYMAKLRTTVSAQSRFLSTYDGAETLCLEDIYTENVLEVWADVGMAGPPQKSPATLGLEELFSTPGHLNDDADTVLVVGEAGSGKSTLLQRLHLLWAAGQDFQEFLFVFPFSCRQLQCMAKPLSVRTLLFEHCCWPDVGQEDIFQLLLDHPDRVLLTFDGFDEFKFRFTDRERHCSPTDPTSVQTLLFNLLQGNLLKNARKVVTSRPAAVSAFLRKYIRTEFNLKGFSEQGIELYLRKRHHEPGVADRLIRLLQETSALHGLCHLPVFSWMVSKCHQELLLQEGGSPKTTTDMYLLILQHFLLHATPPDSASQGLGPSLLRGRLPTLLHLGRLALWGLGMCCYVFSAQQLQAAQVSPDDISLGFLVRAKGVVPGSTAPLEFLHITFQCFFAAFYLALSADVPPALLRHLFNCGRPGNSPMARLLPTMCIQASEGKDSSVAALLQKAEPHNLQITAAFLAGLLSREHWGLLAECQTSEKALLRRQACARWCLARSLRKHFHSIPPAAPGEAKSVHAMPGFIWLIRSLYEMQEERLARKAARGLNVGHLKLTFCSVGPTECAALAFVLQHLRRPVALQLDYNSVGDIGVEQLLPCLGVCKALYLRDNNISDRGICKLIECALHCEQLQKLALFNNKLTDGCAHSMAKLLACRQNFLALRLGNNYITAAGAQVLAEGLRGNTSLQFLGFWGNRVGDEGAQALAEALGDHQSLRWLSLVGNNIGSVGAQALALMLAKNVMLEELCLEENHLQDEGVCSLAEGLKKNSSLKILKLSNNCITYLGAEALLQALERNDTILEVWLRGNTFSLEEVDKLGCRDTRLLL

HEK293 [3] = experiment: NOD2 signaling inhibitors in MDP-stimulated cells, cell-based, uHTS, luminescence (AID 2001); format: functional; settings: Homo sapiens
Tumor necrosis factor [4] = biological target: T2, Tumor necrosis factor (Homo sapiens, UniProt P01375); experiment: TNFa-triggered NF-kB activation inhibitors, SAR follow-up, cell-based, set 3 (AID 2801); format: functional
T2 sequence (P01375 whole entry): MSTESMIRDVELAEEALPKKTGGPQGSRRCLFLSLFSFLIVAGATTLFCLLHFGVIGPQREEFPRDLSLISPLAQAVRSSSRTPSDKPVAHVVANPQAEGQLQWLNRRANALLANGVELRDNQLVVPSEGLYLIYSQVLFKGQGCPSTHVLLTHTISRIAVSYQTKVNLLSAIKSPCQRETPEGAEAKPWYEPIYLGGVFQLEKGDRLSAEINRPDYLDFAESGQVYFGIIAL

HEK293 [5] = experiment: cells; format: functional, cell-based; settings: Homo sapiens
Interleukin-8 [6] = biological target: T3, Interleukin-8 (Homo sapiens, UniProt P10145); experiment: SAR analysis of Tumor necrosis factor alpha (TNF-alpha) induced IL-8 secretion in MCF-7/NOD1 cells - Set 2. [Related pubchem assays (depositor defined):AID1575, AID2250, AID2260]; format: functional, cell-based
T3 sequence (P10145 whole entry): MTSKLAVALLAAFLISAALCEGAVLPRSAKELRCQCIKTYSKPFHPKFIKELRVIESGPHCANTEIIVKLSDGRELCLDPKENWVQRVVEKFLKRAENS

Tumor necrosis factor [7] = biological target: T2, Tumor necrosis factor; experiment: TNFa-triggered NF-kB activation inhibitors, SAR follow-up, cell-based, revised (AID 2337); format: functional
[8] = biological target: T1, Nucleotide-binding oligomerization domain-containing protein 2; experiment: PubChem AID 2334; format: functional
HEK293 [9] = experiment: cells; format: functional, cell-based; settings: Homo sapiens; remark: listed apart in the source
[10] = biological target: T4, Nucleotide-binding oligomerization domain-containing protein 1 (Homo sapiens, UniProt Q9Y239); experiment: SAR analysis of compounds that inhibit NOD1 - Set 3. [Related pubchem assays (depositor defined):AID1566, AID1575, AID1578, AID1849, AID1852, AID2333, AID2335, AID2466]; format: functional
T4 sequence (Q9Y239 whole entry): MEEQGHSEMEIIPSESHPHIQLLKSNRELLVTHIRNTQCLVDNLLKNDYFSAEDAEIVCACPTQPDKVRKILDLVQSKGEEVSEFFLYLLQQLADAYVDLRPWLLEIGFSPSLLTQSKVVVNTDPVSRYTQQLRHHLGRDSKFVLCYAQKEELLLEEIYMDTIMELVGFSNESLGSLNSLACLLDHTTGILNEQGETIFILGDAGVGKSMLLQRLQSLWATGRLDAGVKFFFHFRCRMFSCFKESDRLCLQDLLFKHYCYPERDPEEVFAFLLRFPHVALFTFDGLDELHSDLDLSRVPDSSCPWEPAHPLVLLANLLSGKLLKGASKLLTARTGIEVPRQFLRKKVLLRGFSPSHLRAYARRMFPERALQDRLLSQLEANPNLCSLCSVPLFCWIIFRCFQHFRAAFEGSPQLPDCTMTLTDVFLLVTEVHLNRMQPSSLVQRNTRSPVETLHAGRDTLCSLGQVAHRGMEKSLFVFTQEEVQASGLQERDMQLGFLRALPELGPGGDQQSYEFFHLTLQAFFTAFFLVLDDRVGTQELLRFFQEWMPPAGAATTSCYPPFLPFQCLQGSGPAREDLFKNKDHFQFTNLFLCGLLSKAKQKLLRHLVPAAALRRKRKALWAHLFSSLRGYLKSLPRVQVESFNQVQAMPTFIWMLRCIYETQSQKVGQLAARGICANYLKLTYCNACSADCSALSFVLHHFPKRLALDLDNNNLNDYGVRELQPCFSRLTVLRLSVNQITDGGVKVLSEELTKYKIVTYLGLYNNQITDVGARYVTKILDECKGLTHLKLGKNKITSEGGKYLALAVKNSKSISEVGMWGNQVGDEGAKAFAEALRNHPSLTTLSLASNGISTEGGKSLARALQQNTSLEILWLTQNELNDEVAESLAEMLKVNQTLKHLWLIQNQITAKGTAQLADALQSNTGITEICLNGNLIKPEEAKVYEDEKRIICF

HEK293 [11] = experiment: NOD1 signaling inhibitors, primary screen, cell-based, luminescence, uHTS (AID 1578); format: functional; settings: Homo sapiens
HEK293 [12] = experiment: cells; settings: Homo sapiens
[13] = biological target: T4, Nucleotide-binding oligomerization domain-containing protein 1; experiment: NOD1 signaling inhibitors, SAR follow-up, revised (AID 2333); format: functional
Interleukin-8 [14] = biological target: T3, Interleukin-8; experiment: SAR analysis of GM-Tri-DAP induced IL-8 secretion in MCF-7/NOD1 cells - Set 2. [Related pubchem assays (depositor defined):AID1575, AID1578, AID2333]; format: functional, cell-based
[15] = biological target: T1, Nucleotide-binding oligomerization domain-containing protein 2; experiment: NOD2 inhibitors, SAR follow-up, set 2 (AID 2475); format: functional
HEK293 [16] = experiment: SAR analysis of compounds that are cytotoxic to HEK293 - Set 2. [Related pubchem assays (depositor defined):AID1575, AID1578, AID1849, AID2001, AID2333, AID2334, AID2335, AID2337, AID2800]; format: functional, cell-based; settings: Homo sapiens
[17] = biological target: T4, Nucleotide-binding oligomerization domain-containing protein 1; experiment: SAR analysis of NF-kappaB dependent luciferase using DAP as an inducer - Set 2. [Related pubchem assays (depositor defined):AID1566, AID1575, AID1578, AID1579, AID1849, AID1852, AID2264]; format: functional
Hexokinase HKDC1 = biological target: T5, Hexokinase HKDC1 (Homo sapiens, UniProt Q2TB90); experiment: HKDC1 hexokinase activators, dose response, biochemical, W721R variant (AID 504730); format: functional
T5 sequence (Q2TB90 whole entry): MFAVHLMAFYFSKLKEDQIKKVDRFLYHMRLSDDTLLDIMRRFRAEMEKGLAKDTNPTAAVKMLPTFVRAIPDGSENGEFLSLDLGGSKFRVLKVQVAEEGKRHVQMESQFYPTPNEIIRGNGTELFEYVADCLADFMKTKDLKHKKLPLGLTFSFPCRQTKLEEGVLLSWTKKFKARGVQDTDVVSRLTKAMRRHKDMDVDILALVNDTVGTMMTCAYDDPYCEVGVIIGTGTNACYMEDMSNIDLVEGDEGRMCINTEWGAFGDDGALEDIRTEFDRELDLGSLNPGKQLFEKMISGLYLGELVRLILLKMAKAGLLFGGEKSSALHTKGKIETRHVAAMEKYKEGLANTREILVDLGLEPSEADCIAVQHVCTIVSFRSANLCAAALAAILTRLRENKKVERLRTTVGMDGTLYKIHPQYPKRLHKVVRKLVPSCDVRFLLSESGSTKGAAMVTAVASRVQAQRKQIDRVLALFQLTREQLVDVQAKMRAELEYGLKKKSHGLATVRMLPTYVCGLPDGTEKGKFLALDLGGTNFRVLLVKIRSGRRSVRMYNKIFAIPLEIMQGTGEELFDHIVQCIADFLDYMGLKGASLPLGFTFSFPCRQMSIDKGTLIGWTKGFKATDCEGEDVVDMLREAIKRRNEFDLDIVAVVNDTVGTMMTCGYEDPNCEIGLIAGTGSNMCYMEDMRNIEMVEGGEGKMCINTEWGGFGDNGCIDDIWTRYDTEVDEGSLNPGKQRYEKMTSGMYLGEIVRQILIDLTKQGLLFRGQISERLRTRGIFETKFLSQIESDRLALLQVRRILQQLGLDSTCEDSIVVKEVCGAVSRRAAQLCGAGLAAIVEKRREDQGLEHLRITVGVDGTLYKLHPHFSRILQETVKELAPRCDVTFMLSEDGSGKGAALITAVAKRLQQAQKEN

Hexokinase-1 = biological target: T6, Hexokinase-1 (Homo sapiens, UniProt P19367); experiment: hexokinase 1 activators, dose response, selectivity assay for HKDC1 activator project, biochemical (AID 504762); format: functional
T6 sequence (P19367 whole entry): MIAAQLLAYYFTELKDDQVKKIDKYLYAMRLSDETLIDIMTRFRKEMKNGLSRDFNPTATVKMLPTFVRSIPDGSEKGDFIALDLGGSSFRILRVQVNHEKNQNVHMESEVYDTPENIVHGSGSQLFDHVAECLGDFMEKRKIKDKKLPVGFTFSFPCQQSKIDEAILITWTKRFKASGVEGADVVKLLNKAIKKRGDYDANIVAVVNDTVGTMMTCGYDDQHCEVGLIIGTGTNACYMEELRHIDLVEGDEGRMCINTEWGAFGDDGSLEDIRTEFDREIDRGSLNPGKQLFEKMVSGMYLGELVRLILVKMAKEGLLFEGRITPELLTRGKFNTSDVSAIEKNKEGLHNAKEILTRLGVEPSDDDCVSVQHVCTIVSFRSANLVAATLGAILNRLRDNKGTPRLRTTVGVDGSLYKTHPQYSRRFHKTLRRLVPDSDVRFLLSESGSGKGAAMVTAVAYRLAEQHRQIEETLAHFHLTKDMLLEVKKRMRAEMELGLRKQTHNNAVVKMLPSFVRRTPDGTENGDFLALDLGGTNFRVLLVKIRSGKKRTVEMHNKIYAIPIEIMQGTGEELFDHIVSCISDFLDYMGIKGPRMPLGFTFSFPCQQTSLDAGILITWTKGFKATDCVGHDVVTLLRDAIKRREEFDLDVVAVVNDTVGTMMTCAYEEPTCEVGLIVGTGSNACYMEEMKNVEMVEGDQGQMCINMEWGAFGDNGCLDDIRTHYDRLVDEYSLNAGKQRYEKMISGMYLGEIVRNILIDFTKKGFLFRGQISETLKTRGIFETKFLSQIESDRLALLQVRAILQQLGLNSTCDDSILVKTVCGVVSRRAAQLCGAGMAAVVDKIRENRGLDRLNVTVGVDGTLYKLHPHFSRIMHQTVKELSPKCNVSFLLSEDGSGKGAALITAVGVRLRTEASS

[18] = biological target: T7, Lysosomal acid glucosylceramidase (Homo sapiens, UniProt P04062); experiment: Dose response cell-based high throughput screening assay to identify enhancers of beta-glucosidase activity. [Related pubchem assays: 784 ]; format: functional
T7 sequence (P04062 whole entry): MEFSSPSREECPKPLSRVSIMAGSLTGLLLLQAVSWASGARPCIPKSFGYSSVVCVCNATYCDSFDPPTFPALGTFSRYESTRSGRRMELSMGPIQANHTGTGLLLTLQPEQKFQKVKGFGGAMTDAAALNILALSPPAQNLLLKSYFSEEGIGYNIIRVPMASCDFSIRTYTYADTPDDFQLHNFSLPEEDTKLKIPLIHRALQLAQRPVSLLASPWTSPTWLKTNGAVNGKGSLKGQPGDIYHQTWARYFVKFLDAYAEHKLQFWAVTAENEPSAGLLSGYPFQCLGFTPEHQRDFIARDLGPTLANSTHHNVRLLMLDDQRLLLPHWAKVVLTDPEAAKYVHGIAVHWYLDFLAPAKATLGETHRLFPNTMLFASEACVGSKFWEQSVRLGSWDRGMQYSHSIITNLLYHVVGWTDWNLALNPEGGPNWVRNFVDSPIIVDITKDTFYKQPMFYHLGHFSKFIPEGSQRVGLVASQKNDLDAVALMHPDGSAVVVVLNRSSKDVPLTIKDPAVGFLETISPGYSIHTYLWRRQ

[19] = biological target: T8, Calpain-2 catalytic subunit (Sus scrofa, UniProt P43367); experiment: pig calpain II inhibitor potency, dose response, biochemical, fluorogenic peptide substrate (AID 1420); format: functional
T8 sequence (P43367 whole entry): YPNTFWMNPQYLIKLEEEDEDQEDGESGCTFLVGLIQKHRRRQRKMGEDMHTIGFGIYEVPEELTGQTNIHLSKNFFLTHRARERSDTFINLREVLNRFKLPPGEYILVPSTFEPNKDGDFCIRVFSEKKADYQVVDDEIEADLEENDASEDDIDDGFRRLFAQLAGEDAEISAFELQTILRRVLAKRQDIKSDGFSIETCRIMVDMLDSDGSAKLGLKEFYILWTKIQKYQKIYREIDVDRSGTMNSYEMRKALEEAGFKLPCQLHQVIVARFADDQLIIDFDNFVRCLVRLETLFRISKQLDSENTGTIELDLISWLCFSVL

C/C=C/Cn1c(SCCCc2ccccc2)nc2c1c(=O)[nH]c(=O)n2C
IC50 (HEK293 [1]): > 20 µM (inactive)
IC50 [2]: 7.97 µM (active) and 10.6 µM (active)
IC50 (HEK293 [3]): 16.2 µM (inactive)
IC50 (Tumor necrosis factor [4]): 18.2 µM (active) and 18.6 µM (inactive)
IC50 (HEK293 [5]): > 20 µM (inactive)
IC50 (Interleukin-8 [6]): > 25 µM (inactive)
IC50 (Tumor necrosis factor [7]): 62.7 µM (inactive)
IC50 [8]: 16.9 µM (active)
IC50 (HEK293 [9]): > 20 µM (inactive)
IC50 [10]: 1.36 µM (active)
EC50 (HEK293 [11]): 6.37 µM (active)
IC50 (HEK293 [12]): > 20 µM (inactive)
IC50 [13]: 1.81 µM (active)
IC50 (Interleukin-8 [14]): 3.43 µM (active)
IC50 [15]: 4.18 µM (active)
IC50 (HEK293 [16]): > 20 µM (inactive)
IC50 [17]: 14.4 µM (active)

O=S(=O)(NC1c2cccc3cccc(c23)C1N1CCNCC1)c1ccccc1 (stereo unspecified)
EC50 (Hexokinase HKDC1): 11.7 µM (active)
EC50 (Hexokinase-1): 13.6 µM (active)
EC50 [18]: 1.66 µM (active)
IC50 [19]: < 0.4 µM (not active)
